Source: patent publication US20240000872A1, “NOVEL BACTERIOPHAGE THAT LYSES ACINETOBACTER GENUS BACTERIA HAVING RESISTANCE TO ANTIBIOTICS” (priority 2020, published 2024)

Test system: Acinetobacter baumannii strains
Assay: Antibiotic susceptibility test (CLSI disk diffusion test method, read per CLSI 2016); note: key: ‘S’ means susceptible; ‘I’ means intermediate; ‘R’ means resistant
Format: cell-based

SMILES: CN(C)c1cc(NC(=O)CNC(C)(C)C)c(O)c2c1C[C@H]1C[C@H]3[C@H](N(C)C)C(O)=C(C(N)=O)C(=O)[C@@]3(O)C(O)=C1C2=O [Tigecycline, tigecycline]
- antibiotic susceptibility class (host strain YMC14/01/C29): S
- antibiotic susceptibility class (host strain YMC14/01/IP122): S
- antibiotic susceptibility class (host strain YMC14/01/L8): S
- antibiotic susceptibility class (host strain YMC14/01/P31): S
- antibiotic susceptibility class (host strain YMC14/01/P117): S
- antibiotic susceptibility class (host strain YMC14/01/P224): I
- antibiotic susceptibility class (host strain YMC14/01/P727): R
- antibiotic susceptibility class (host strain YMC14/01/P728): S
- antibiotic susceptibility class (host strain YMC14/01/R130): S
- antibiotic susceptibility class (host strain YMC14/01/R160): S
- antibiotic susceptibility class (host strain YMC14/01/R198): S
- antibiotic susceptibility class (host strain YMC14/01/R257): S
- antibiotic susceptibility class (host strain YMC14/01/R270): S
- antibiotic susceptibility class (host strain YMC14/01/R324): S
- antibiotic susceptibility class (host strain YMC14/01/R443): S
- antibiotic susceptibility class (host strain YMC14/01/R451): S
- antibiotic susceptibility class (host strain YMC14/01/R560): R
- antibiotic susceptibility class (host strain YMC14/01/R617): S
- antibiotic susceptibility class (host strain YMC14/01/R671): S
- antibiotic susceptibility class (host strain YMC14/01/R732): R
- antibiotic susceptibility class (host strain YMC14/01/R767): S
- antibiotic susceptibility class (host strain YMC14/01/R904): S
- antibiotic susceptibility class (host strain YMC14/01/R905): S
- antibiotic susceptibility class (host strain YMC14/01/R921): S
- antibiotic susceptibility class (host strain YMC14/01/R941): R
- antibiotic susceptibility class (host strain YMC14/01/R958): R
- antibiotic susceptibility class (host strain YMC14/01/R1006): S
- antibiotic susceptibility class (host strain YMC14/01/R1199): S
- antibiotic susceptibility class (host strain YMC14/01/R1659): S
- antibiotic susceptibility class (host strain YMC14/01/R1722): S
- antibiotic susceptibility class (host strain YMC14/01/R1752): S
- antibiotic susceptibility class (host strain YMC14/01/R2429): S
- antibiotic susceptibility class (host strain YMC14/01/R2572): I
- antibiotic susceptibility class (host strain YMC14/01/R2855): S
- antibiotic susceptibility class (host strain YMC14/01/R2945): S
- antibiotic susceptibility class (host strain YMC14/01/R3007): S
- antibiotic susceptibility class (host strain YMC14/01/R3129): I
- antibiotic susceptibility class (host strain YMC14/01/R3317): S
- antibiotic susceptibility class (host strain YMC14/01/R3474): S
- antibiotic susceptibility class (host strain YMC14/01/R3574): S
- antibiotic susceptibility class (host strain YMC14/01/U313): R
- antibiotic susceptibility class (host strain YMC14/01/U318): S
- antibiotic susceptibility class (host strain YMC14/02/L18): S
- antibiotic susceptibility class (host strain YMC14/02/P47): I
- antibiotic susceptibility class (host strain YMC14/02/R1860): I
- antibiotic susceptibility class (host strain YMC14/02/R2417): S
- antibiotic susceptibility class (host strain YMC14/02/R2599): S
- antibiotic susceptibility class (host strain YMC14/02/R2668): R
- antibiotic susceptibility class (host strain YMC14/02/R2758): R
- antibiotic susceptibility class (host strain YMC14/02/R2781): S
- antibiotic susceptibility class (host strain YMC14/02/R3106): S
- antibiotic susceptibility class (host strain YMC14/02/R3419): R
- antibiotic susceptibility class (host strain YMC14/02/U1607): S
- antibiotic susceptibility class (host strain YMC14/03/L9): S
- antibiotic susceptibility class (host strain YMC14/03/P471): S
- antibiotic susceptibility class (host strain YMC14/03/R122): R
- antibiotic susceptibility class (host strain YMC14/03/R217): S
- antibiotic susceptibility class (host strain YMC14/03/R380): R
- antibiotic susceptibility class (host strain YMC14/03/R618): S
- antibiotic susceptibility class (host strain YMC14/03/R2144): S
- antibiotic susceptibility class (host strain YMC14/03/U4616): S
- antibiotic susceptibility class (host strain YMC14/04/R1078): S
- antibiotic susceptibility class (host strain YMC14/04/R1080): S
- antibiotic susceptibility S/I/R (host strain YMC14/06/R2359): S
- susceptibility category (S/I/R) (host strain YMC14/06/R2359): S
- antibiotic susceptibility S/I/R (host strain YMC14/08/R1169): R
- susceptibility category (S/I/R) (host strain YMC14/08/R1169): R
- antibiotic susceptibility S/I/R (host strain YMC14/08/T90): S
- susceptibility category (S/I/R) (host strain YMC14/08/T90): S
- susceptibility category (S/I/R) (host strain YMC15/02/R436): I
- antibiotic susceptibility S/I/R (host strain YMC15/02/T28): S
- susceptibility category (S/I/R) (host strain YMC15/02/T28): S
- antibiotic susceptibility S/I/R (host strain YMC15/03/R1604): S
- susceptibility category (S/I/R) (host strain YMC15/03/R1604): S
- susceptibility category (S/I/R) (host strain YMC15/09/R1869): I
- antibiotic susceptibility S/I/R (host strain YMC16/01/P11): S
- susceptibility category (S/I/R) (host strain YMC16/01/P11): S
- antibiotic susceptibility S/I/R (host strain YMC16/01/R123): S
- susceptibility category (S/I/R) (host strain YMC16/01/R123): S
- antibiotic susceptibility S/I/R (host strain YMC16/01/R198): S
- susceptibility category (S/I/R) (host strain YMC16/01/R198): S
- antibiotic susceptibility S/I/R (host strain YMC16/01/R353): S
- susceptibility category (S/I/R) (host strain YMC16/01/R353): S
- antibiotic susceptibility S/I/R (host strain YMC16/01/R380): S
- susceptibility category (S/I/R) (host strain YMC16/01/R380): S
- antibiotic susceptibility S/I/R (host strain YMC16/01/R397): S
- susceptibility category (S/I/R) (host strain YMC16/01/R397): S
- antibiotic susceptibility S/I/R (host strain YMC16/01/R405): R
- susceptibility category (S/I/R) (host strain YMC16/01/R405): R
- susceptibility category (S/I/R) (host strain YMC16/03/R4461): I
- antibiotic susceptibility S/I/R (host strain YMC16/05/R2210): S
- susceptibility category (S/I/R) (host strain YMC16/05/R2210): S
- antibiotic susceptibility S/I/R (host strain YMC16/07/R2512): S
- susceptibility category (S/I/R) (host strain YMC16/07/R2512): S
- antibiotic susceptibility S/I/R (host strain YMC16/09/R2471): S
- susceptibility category (S/I/R) (host strain YMC16/09/R2471): S
- antibiotic susceptibility S/I/R (host strain YMC16/10/R2537): S
- susceptibility category (S/I/R) (host strain YMC16/10/R2537): S
- antibiotic susceptibility S/I/R (host strain YMC16/12/B11422): S
- susceptibility category (S/I/R) (host strain YMC16/12/B11422): S
- antibiotic susceptibility S/I/R (host strain YMC16/12/B11449): S
- susceptibility category (S/I/R) (host strain YMC16/12/B11449): S
- antibiotic susceptibility S/I/R (host strain YMC16/12/B13325): S
- susceptibility category (S/I/R) (host strain YMC16/12/B13325): S
- antibiotic susceptibility S/I/R (host strain YMC16/12/P503): S
- susceptibility category (S/I/R) (host strain YMC16/12/P503): S
- susceptibility category (S/I/R) (host strain YMC16/12/R4637): I
- antibiotic susceptibility S/I/R (host strain YMC17/01/B8053): R
- susceptibility category (S/I/R) (host strain YMC17/01/B8053): R
- antibiotic susceptibility S/I/R (host strain YMC17/01/B10087): S
- susceptibility category (S/I/R) (host strain YMC17/01/B10087): S
- antibiotic susceptibility S/I/R (host strain YMC17/01/B12075): S
- susceptibility category (S/I/R) (host strain YMC17/01/B12075): S
- antibiotic susceptibility S/I/R (host strain YMC17/01/B13454): S
- susceptibility category (S/I/R) (host strain YMC17/01/B13454): S
- antibiotic susceptibility S/I/R (host strain YMC17/01/P518): S
- susceptibility category (S/I/R) (host strain YMC17/01/P518): S
- susceptibility category (S/I/R) (host strain YMC17/01/R2812): I
- antibiotic susceptibility S/I/R (host strain YMC17/02/B14): S
- susceptibility category (S/I/R) (host strain YMC17/02/B14): S
- antibiotic susceptibility S/I/R (host strain YMC17/02/B87): S
- susceptibility category (S/I/R) (host strain YMC17/02/B87): S
- antibiotic susceptibility S/I/R (host strain YMC17/02/B721): S
- susceptibility category (S/I/R) (host strain YMC17/02/B721): S
- antibiotic susceptibility S/I/R (host strain YMC17/02/B4039): S
- susceptibility category (S/I/R) (host strain YMC17/02/B4039): S
- antibiotic susceptibility S/I/R (host strain YMC17/02/B4520): S
- susceptibility category (S/I/R) (host strain YMC17/02/B4520): S
- antibiotic susceptibility S/I/R (host strain YMC17/02/B4864): S
- susceptibility category (S/I/R) (host strain YMC17/02/B4864): S
- antibiotic susceptibility S/I/R (host strain YMC17/02/B8414): R
- susceptibility category (S/I/R) (host strain YMC17/02/B8414): R
- antibiotic susceptibility S/I/R (host strain YMC17/02/P523): S
- susceptibility category (S/I/R) (host strain YMC17/02/P523): S
- susceptibility category (S/I/R) (host strain YMC17/02/R541): I
- antibiotic susceptibility S/I/R (host strain YMC17/02/R2392): S
- susceptibility category (S/I/R) (host strain YMC17/02/R2392): S
- antibiotic susceptibility S/I/R (host strain YMC17/03/B4730): R
- susceptibility category (S/I/R) (host strain YMC17/03/B4730): R
- antibiotic susceptibility S/I/R (host strain YMC17/03/B5000): S
- susceptibility category (S/I/R) (host strain YMC17/03/B5000): S
- antibiotic susceptibility S/I/R (host strain YMC17/03/P971): R
- susceptibility category (S/I/R) (host strain YMC17/03/P971): R
- antibiotic susceptibility S/I/R (host strain YMC17/03/R348): S
- susceptibility category (S/I/R) (host strain YMC17/03/R348): S
- susceptibility category (S/I/R) (host strain YMC17/03/R585): I
- antibiotic susceptibility S/I/R (host strain YMC17/03/R1888): R
- susceptibility category (S/I/R) (host strain YMC17/03/R1888): R
- antibiotic susceptibility S/I/R (host strain YMC17/03/R3279): S
- susceptibility category (S/I/R) (host strain YMC17/03/R3279): S
- antibiotic susceptibility S/I/R (host strain YMC17/03/R4077): R
- susceptibility category (S/I/R) (host strain YMC17/03/R4077): R
- antibiotic susceptibility S/I/R (host strain YMC17/03/R4607): S
- susceptibility category (S/I/R) (host strain YMC17/03/R4607): S
- antibiotic susceptibility S/I/R (host strain YMC17/04/R488): S
- susceptibility category (S/I/R) (host strain YMC17/04/R488): S
- antibiotic susceptibility S/I/R (host strain YMC17/04/R640): R
- susceptibility category (S/I/R) (host strain YMC17/04/R640): R
- susceptibility category (S/I/R) (host strain YMC/17/05/R1095): I
